The star is where a group is joined. AMC = Cc1cc(=O)oc2cc(N*)ccc12
Assays:
Format in all cases: biochemical
[1] = target: T1, interleukin-1β converting enzyme (Homo sapiens, UniProt P29466); experiment: Direct fluorometric assay of ICE activity of DEAE-purified THP-1 cell lysate (Example 1A); design: THP-1 cell lysate purified approximately 100-fold using DEAE-anion exchange chromatography; endogenous in cells; host or cells: THP-1 cells (lysate, about 100-fold DEAE-purified); conditions: substrate cleavage, 25 °C, pH 7.5, 5 µl of 5 mM substrate and 5 µl enzyme (5 units/ul) in 490 µl buffer
T1 sequence (P29466 120-297 limits assumed): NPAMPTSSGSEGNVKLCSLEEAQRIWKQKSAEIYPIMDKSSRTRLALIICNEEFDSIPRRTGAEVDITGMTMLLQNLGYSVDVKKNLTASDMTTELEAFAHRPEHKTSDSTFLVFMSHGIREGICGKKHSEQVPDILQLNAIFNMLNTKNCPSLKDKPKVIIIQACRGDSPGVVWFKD
T1 sequence (P29466 317-404 limits assumed): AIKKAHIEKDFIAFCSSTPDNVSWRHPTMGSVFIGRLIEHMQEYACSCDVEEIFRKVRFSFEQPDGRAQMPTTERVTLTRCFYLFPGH
Description: Direct Assay: Interleukin 1β activity of Activity of DEAE-purified THP-1 cell lysate.
(§1) Enzyme: THP-1 cell lysate purified approximately 100-fold using DEAE-anion exchange chromatography stock concentration = 5 units/ul (a unit is defined as the amount of enzyme required to produce 1 pmole of AMC/min at 25 degrees using saturating levels of substrate (> = 50 µM).
Substrate: N-(N-Acetyl-Tyrosinyl)-Valinyl-alaninylaspartic acid 7-amino-4-methylcoumarin amide (i.e. Ac-Tyr-Val-Ala-Asp-AMC) 5 mM stock solution in DMSO
Buffer: 100 mM Hepes 10% sucrose 0.1% Chaps 1 mM DTT 1 mg/ml BSA pH 7.5 At 25 ° C, 5µl of substrate and 5µl of enzyme was added to 490 µl of Buffer as defined above.
Liberation of 7-Amino-4-methylcoumarin (AMC) was monitored using a Gilford Fluoro IV Spectrofluorometer using an excitation wavelength of 380 nm and an emmission wavelength of 460nm. 1µM AMC = 100% relative fluoroscence.

[2] = target: T1, interleukin-1β converting enzyme; experiment: Direct fluorometric assay of ICE activity of DEAE-purified THP-1 cell lysate in the presence of an enzyme inhibitor (Example 1B); design: THP-1 cell lysate purified approximately 100-fold using DEAE-anion exchange chromatography; endogenous in cells; host or cells: THP-1 cells (lysate, about 100-fold DEAE-purified); conditions: 25 °C
Description: Direct Assay: Interleukin 1β activity of Activity of DEAE-purified THP-1 cell lysate in the presence of an enzyme inhibitor.
as §1
Substrate: Ac-Tyr-Val-Ala-Asp-AMC 5 mM stock solution in DMSO
(§2) Buffer: 100 mM Hepes 10% sucrose 0.1% Chaps 1 mM DTT 1 mg/ml BSA pH 7.5
Sample: compound Z (i.e. N-(N-acetyl-tyrosinylvalinyl-alaninyl)-3-amino-4-oxo butanoic acid) 2µM in H20
At 25 ° C, 5µl of substrate 5µl of enzyme and 5µl of sample were added to 485 µl of Buffer as defined above.
Liberation of AMC was monitored using a Gilford Fluoro IV Spectrofluorometer using an excitation wavelength of 380 nm and an emmission wavelength of 460nm. 1µM AMC = 100% relative fluoroscence.

[3] = target: T1, interleukin-1β converting enzyme; experiment: Direct spectrophotometric assay of ICE activity of DEAE-purified THP-1 cell lysate (Example 2); design: THP-1 cell lysate purified approximately 100-fold using DEAE-anion exchange chromatography; endogenous in cells; host or cells: THP-1 cells (lysate, about 100-fold DEAE-purified); conditions: 25 °C, pH 7.5
Description: as §1, with “Direct Assay: Interleukin 1β activity of Activity of DEAE-purified THP-1 cell lysate. Enzyme:” for “Enzyme:”, “p-NA/min” for “AMC/min”, “substrate. p-NA is para-nitroanaline.” for “substrate (> = 50 µM).”
Substrate: Ac-Tyr-Val-Ala-Asp-p-NA 5 mM stock solution in DMSO
as §2
At 25 ° C, […] of Buffer as defined above.
Reaction is monitored continuously in a Cary 219 spectrophotometer at a wavelength of 410 nm. Results: The rate of the reaction under these conditions is 0.005 absorbance units/min, corresponding to 0.5 uM pNA produced/min.

[4] = target: T1, interleukin-1β converting enzyme; experiment: Coupled fluorometric assay of ICE activity of DEAE-purified THP-1 cell lysate with leucine aminopeptidase (LAPM) (Example 3); design: THP-1 cell lysate purified approximately 100-fold using DEAE-anion exchange chromatography; endogenous in cells; host or cells: THP-1 cells (lysate, about 100-fold DEAE-purified); The coupling enzyme LAPM was purchased from Sigma, No. L-0632, and comes from porcine kidney microsomes; conditions: 25 C
Description: Coupled Assay: Interleukin 1β activity of Activity of DEAE-purified THP-1 cell lysate.
Enzyme: THP-1 cell lysate purified approximately 100-fold using DEAE-anion exchange chromatography stock concentration = 5 units/ul (a unit is defined as the amount of enzyme required to produce 1 pmole of AMC/min at 25 degrees using saturating levels of substrate ( = 50 uM).
Coupling Enzyme: Leucine Aminopetidase Microsomal (Type IV) (LAPM) (purified from porcine kidney microsomes) EC 3.4.11.2 Sigma No. L-0632 12.5 units/ml stock solution in DMSO
Substrate: Ac-Tyr-Val-Ala-Asp-Gly-AMC 5 mM stock solution in DMSO
as §2
At 25 C, 5µl of substrate 50 µl of LAPM, 5µl of ICE were added to 440 µl of buffer. Reaction is monitored continuously in a Gilford Fluoro-IV Spectrofluorometer. excitation wavelength = 380 nm emission wavelength = 460 nm 1 uM AMC = 100% relative fluoroescence

[5] = 5 µl of sample 2µM in 500 µl, substrate Ac-Tyr-Val-Ala-Asp-AMC

CC(=O)N[C@@H](Cc1ccc(O)cc1)C(=O)N[C@H](C(=O)N[C@@H](C)C(=O)N[C@@H](CC(=O)O)C(=O)Nc1ccc2c(C)cc(=O)oc2c1)C(C)C [Ac-Tyr-Val-Ala-Asp-AMC, N-(N-Acetyl-tyrosinyl-valinyl-alaninyl)-aspartic acid a-7-amino-4-methylcoumarin amide]
rate [1]: 0.005 mM AMC/min | 100% relative fluoroscence achieved in ([1]; 1µM AMC = 100% relative fluorescence): 20 min | initial velocity ([2]; uninhibited initial velocity of substrate cleavage in the presence of compound Z, pH 7.5): 0.05 uM AMC produced/min

CC(=O)N[C@@H](Cc1ccc(O)cc1)C(=O)N[C@H](C(=O)N[C@@H](C)C(=O)N[C@@H](CC(=O)O)C(=O)Nc1ccc([N+](=O)[O-])cc1)C(C)C [Ac-Tyr-Val-Ala-Asp-p-NA]
rate of the reaction (pNA produced) ([3]; corresponding to the absorbance rate at 410 nm): 0.5 uM pNA produced/min | rate of the reaction ([3]; substrate cleavage monitored at 410 nm, 5 mM substrate stock): 0.005 absorbance units/min

N-(N-Acetyl-tyrosinyl-valinyl-alaninyl-aspartylglycinyl)-7-amino-4-methylcoumarin (Ac-YVADG-{AMC}; SMILES CC(=O)N[C@@H](Cc1ccc(O)cc1)C(=O)N[C@H](C(=O)N[C@@H](C)C(=O)N[C@@H](CC(=O)O)C(=O)NCC(=O)Nc1ccc2c(C)cc(=O)oc2c1)C(C)C) [Ac-Tyr-Val-Ala-Asp-Gly-AMC]
time required to reach 99% of the steady state of the ICE reaction ([4]; 7 x t 1/2, coupled assay with LAPM): 11 min | velocity of the steady state reaction ([4]; coupled assay with LAPM, 5 µl of 5 mM substrate, 5 µl ICE in 500 µl, pH 7.5): 0.05 uM AMC/min | rate constant that describes the approach to steady state ([4]; lag phase, determined by the amount of coupling enzyme (50 µl LAPM, 12.5 units/ml stock)): 0.44 + 0.01 min -1

N-(N-acetyl-tyrosinylvalinyl-alaninyl)-3-amino-4-oxo butanoic acid [Compound Z]
half-life for the slow onset of inhibition [2, 5]: 2.7 min | rate constant for inhibition [2, 5]: 0.25 min-^1 | inhibition ([2]; slow onset of inhibition, value eventually approached, 5 µl of sample 2µM in 500 µl): ~100% | kind of inhibition ([2]; substrate Ac-Tyr-Val-Ala-Asp-AMC, 5 µl of sample 2µM in H2O in 500 µl, pH 7.5): slow, tight-binding inhibitor
